According to patent publication US7407939B2, “Protein kinase inhibitors comprising ATP mimetics conjugated to peptides or peptidomimetics” (CureGenics Ltd., priority 2001, dated 2008):
Like-named read-outs stand apart in the source and are kept apart here. *1 amine or outer side, *2 acyl side, *3 side chain or, on linkers, in order; H or OH if unused. Where a SMILES comes first, the peptide text is derived from it. Where no end group is shown, it is not given here. Side-chain parts run from the residue outwards. [ ]: non-standard residue; d: D form. The star is where a group is joined. X1 = 5‑aminoethylsulfonamide isoquinoline, O=S(=O)(NCCN*)c1cccc2cnccc12; Isoquinoline5sulfonyl = O=S(=O)(c1cccc2cnccc12)*; X2 = O=C(OCC(Cc1ccccc1)N[*:1])[*:2]; Ethylenediamine = C(CN[*:2])N[*:1]; hLeu = CC(C)CC[C@H](N)C(=O)O; Nle = CCCC[C@H](N)C(=O)O; Orn = NCCC[C@H](N)C(=O)O; Dab = NCC[C@H](N)C(=O)O; Nva = CCC[C@H](N)C(=O)O; Abu = CC[C@H](N)C(=O)O; Dap = NC[C@H](N)C(=O)O; GlyNH2 = aminoglycine; βAla = NCCC(=O)O

What was measured:
PKB = molecular target: T1, PKB (Homo sapiens, UniProt P31749); experiment: PKB in vitro kinase activity assay (soluble His-HA-PKB / SPA bead screening); format: biochemical; set-up: % Inhibition PKB I / % Inhibition PKB II: concentration or dose not given beside the values; conditions: for PKB-kinase (spa) Assay 1, % inhibition of kinase activity / PKB-kinase (spa) Assay 2, % inhibition of kinase activity / inhibition at 1 µM: 1 μM compound concentration; for % Inhibition PKB I / % Inhibition PKB II: plate screening
T1 construct: His; HA; made in house

PKA = molecular target: T2, PKA (Bos taurus, UniProt P00517); experiment: In vitro PKA kinase activity assay (kemptide / SPA beads); format: biochemical; set-up: % Inhibition PKA: concentration or dose not given beside the values; conditions: for PKA-kinase Assay 1, % inhibition of kinase activity / PKA-kinase Assay 2, % inhibition of kinase activity / inhibition at 1 µM: 1 μM compound concentration; for % Inhibition PKA: plate screening;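 on all read-outs here: Cell-free assay of purified PKA catalytic subunit phosphorylating the 7-mer kemptide substrate, run in MOPS buffer with magnesium acetate and BSA, with blank wells lacking enzyme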
T2 construct: purchased Promega

[1] = Assay 1, read-out: PKB-kinase (spa) Assay 1, % inhibition of kinase activity
[2] = Assay 2, read-out: PKB-kinase (spa) Assay 2, % inhibition of kinase activity
[3] = Table 6, most active compounds from plate TY-60020, read-out: IC50 PKB
[4] = Table 6, most active compounds from plate TY-60020, read-out: IC50 PKA
[5] = Table 3, linear 7-mer peptides, read-out: Activity PKB
[6] = Table 3, linear 7-mer peptides, read-out: Activity PKA
[7] = Assay 1, read-out: PKA-kinase Assay 1, % inhibition of kinase activity
[8] = Assay 2, read-out: PKA-kinase Assay 2, % inhibition of kinase activity
[9] = Table 10, accurate IC50 curve, peptide moiety alone, read-out: IC50 μM PKB
[10] = Table 10, accurate IC50 curve, peptide moiety alone, read-out: IC50 μM PKA

T1 sequence (P31749 whole entry, species assumed): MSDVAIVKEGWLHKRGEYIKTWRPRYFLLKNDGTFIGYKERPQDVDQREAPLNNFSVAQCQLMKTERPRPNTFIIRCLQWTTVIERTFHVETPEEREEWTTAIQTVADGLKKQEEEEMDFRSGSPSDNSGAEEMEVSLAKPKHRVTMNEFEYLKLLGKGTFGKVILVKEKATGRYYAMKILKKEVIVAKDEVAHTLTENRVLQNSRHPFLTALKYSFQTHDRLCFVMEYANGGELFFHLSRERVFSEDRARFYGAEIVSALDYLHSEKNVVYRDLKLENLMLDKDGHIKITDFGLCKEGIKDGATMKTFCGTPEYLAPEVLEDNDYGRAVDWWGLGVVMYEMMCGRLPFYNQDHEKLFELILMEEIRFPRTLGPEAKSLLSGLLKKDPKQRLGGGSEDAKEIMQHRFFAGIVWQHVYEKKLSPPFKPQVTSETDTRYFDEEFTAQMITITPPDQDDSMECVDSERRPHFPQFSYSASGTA

## 60020-10: Arg-Pro-Arg-Orn-Glu(5-aminoethylsulfonamide isoquinoline)-Dab-Hol (RPR[Orn]E(X1)[Dab][hLeu])
PKB; Assay 1
  PKB-kinase (spa) Assay 1, % inhibition of kinase activity: 45%
PKB; Assay 2
  PKB-kinase (spa) Assay 2, % inhibition of kinase activity: 48%
PKA; Assay 1
  PKA-kinase Assay 1, % inhibition of kinase activity: 92%
PKA; Assay 2
  PKA-kinase Assay 2, % inhibition of kinase activity: 94%

## CCCC[C@H](NC(=O)[C@H](CCCNC(=N)N)NC(=O)[C@@H]1CCCN1C(=O)[C@@H](N)CCCNC(=N)N)C(=O)N[C@@H](CCC(=O)NCCC(=O)NCCNS(=O)(=O)c1cccc2cnccc12)C(=O)N[C@@H](CCC)C(=O)N[C@@H](Cc1ccccc1)C(N)=O [60020-95] (H-RPR[Nle]E([βAla-Ethylenediamine-Isoquinoline5sulfonyl])[Nva]F-NH2; N-terminus assumed)
PKB; [1]
  inhibition at 1 µM: 46%
PKB; [2]
  inhibition at 1 µM: 90%
PKB; [3]
  IC50: 3.3 µM
PKA; [4]
  IC50: 2 µM

## CC(C)CC[C@H](NC(=O)[C@H](CN)NC(=O)[C@H](CO)NC(=O)[C@@H](NC(=O)[C@H](CCCNC(=N)N)NC(=O)[C@@H]1CCCN1C(=O)[C@@H](N)CCCNC(=N)N)[C@@H](C)O)C(N)=O [TY 60002-96, Arg-Pro-Arg-Thr-Ser-Dap-Hol] (H-RPRTS[Dap][hLeu]-NH2; N-terminus and C-terminus assumed)
PKB; [5]
  IC50: 5 µM
PKA; [6]
  IC50: > 40 µM

## CCCC[C@H](NC(=O)[C@H](CCCNC(=N)N)NC(=O)[C@@H]1CCCN1C(=O)[C@@H](N)CCCNC(=N)N)C(=O)N[C@@H](CCC(=O)NCC(=O)NCCNS(=O)(=O)c1cccc2cnccc12)C(=O)N[C@@H](CCCN)C(=O)N[C@@H](Cc1ccccc1)C(N)=O [60020-59] (H-RPR[Nle]E([Gly-Ethylenediamine-Isoquinoline5sulfonyl])[Orn]F-NH2; N-terminus assumed)
PKB; [1]
  inhibition at 1 µM: 62%
PKB; [2]
  inhibition at 1 µM: 75%
PKB; [3]
  IC50: 0.3 µM
PKA; [7]
  inhibition at 1 µM: 92%
PKA; [8]
  inhibition at 1 µM: 93%
PKA; [4]
  IC50: 0.2 µM

## CC[C@H](NC(=O)[C@H](CO)NC(=O)[C@@H](NC(=O)[C@H](CCCNC(=N)N)NC(=O)[C@@H]1CCCN1C(=O)[C@@H](N)CCCNC(=N)N)[C@@H](C)O)C(=O)N[C@@H](CCC(C)C)C(N)=O [TY 60002-73, Arg-Pro-Arg-Thr-Ser-Abu-Hol] (H-RPRTS[Abu][hLeu]-NH2; N-terminus and C-terminus assumed)
PKB; [5]
  IC50: 5 µM
PKB; [9]
  IC50: 34 µM
PKB; peptide moiety alone
  % Inhibition PKB I: 44%
PKA; [6]
  IC50: > 40 µM
PKA; [10]
  IC50: 228 µM
PKA; peptide moiety alone
  % Inhibition PKA: 8%

## 60005-32 (RPRT[GlyNH2]A[hLeu]) [Compound 60005-32]
PKB; peptide moiety alone
  % Inhibition PKB I: 43%
  % Inhibition PKB II: 44%
PKA; peptide moiety alone
  % Inhibition PKA: 4%

## N=C(N)NCCC[C@H](NC(=O)[C@@H]1CCCN1C(=O)[C@@H](N)CCCNC(=N)N)C(=O)N[C@@H](CN)C(=O)N[C@@H](CCC(=O)NCCC(=O)NCCNS(=O)(=O)c1cccc2cnccc12)C(=O)N[C@@H](CCCN)C(=O)N[C@@H](Cc1ccccc1)C(N)=O [60020-67] (H-RPR[Dap]E([βAla-Ethylenediamine-Isoquinoline5sulfonyl])[Orn]F-NH2; N-terminus assumed)
PKB; [1]
  inhibition at 1 µM: 51%
PKB; [2]
  inhibition at 1 µM: 68%
PKB; [3]
  IC50: 1.08 µM
PKA; [4]
  IC50: 0.25 µM

## CCC[C@H](NC(=O)[C@H](CCCNC(=N)N)NC(=O)[C@@H]1CCCN1C(=O)[C@@H](N)CCCNC(=N)N)C(=O)NCC(=O)N[C@@H](C)C(=O)N[C@@H](CCC(C)C)C(N)=O [60006-18A] (H-RPR[Nva]GA[hLeu]-NH2; N-terminus and C-terminus assumed)
PKB; [9]
  IC50: 9.45 µM
PKB; peptide moiety alone
  % Inhibition PKB I: 47%
  % Inhibition PKB II: 52%
PKA; [10]
  IC50: > 100 µM
PKA; peptide moiety alone
  % Inhibition PKA: 11%

## 60020-52: Arg-Pro-Arg-Abu-Glu(Gly-5-aminoethylsulfonamide isoquinoline)-Orn-Hol (RPR[Abu]E([Gly-X1])[Orn][hLeu])
PKB; Assay 1
  PKB-kinase (spa) Assay 1, % inhibition of kinase activity: 56%
PKB; Assay 2
  PKB-kinase (spa) Assay 2, % inhibition of kinase activity: 53%
PKA; Assay 1
  PKA-kinase Assay 1, % inhibition of kinase activity: 92%
PKA; Assay 2
  PKA-kinase Assay 2, % inhibition of kinase activity: 92%

## 60020-9: Arg-Pro-Arg-Orn-Glu(5-aminoethylsulfonamide isoquinoline)-Dab-Phe (RPR[Orn]E(X1)[Dab]F)
PKB; Assay 1
  PKB-kinase (spa) Assay 1, % inhibition of kinase activity: 71%
PKB; Assay 2
  PKB-kinase (spa) Assay 2, % inhibition of kinase activity: 57%
PKA; Assay 1
  PKA-kinase Assay 1, % inhibition of kinase activity: 96%
PKA; Assay 2
  PKA-kinase Assay 2, % inhibition of kinase activity: 97%

## 60020-50: Arg-Pro-Arg-Abu-Glu(Gly-5-aminoethylsulfonamide isoquinoline)-Dab-Hol (RPR[Abu]E([Gly-X1])[Dab][hLeu])
PKB; Assay 1
  PKB-kinase (spa) Assay 1, % inhibition of kinase activity: 60%
PKB; Assay 2
  PKB-kinase (spa) Assay 2, % inhibition of kinase activity: 54%
PKA; Assay 1
  PKA-kinase Assay 1, % inhibition of kinase activity: 97%
PKA; Assay 2
  PKA-kinase Assay 2, % inhibition of kinase activity: 97%

## CC(C)CC[C@H](NC(=O)[C@H](C)NC(=O)[C@H](CO)NC(=O)[C@@H](NC(=O)[C@H](CCCNC(=N)N)NC(=O)[C@@H]1CCCN1C(=O)[C@@H](N)CCCNC(=N)N)[C@@H](C)O)C(N)=O [TY 60002-50, Arg-Pro-Arg-Thr-Ser-Ala-Hol] (H-RPRTSA[hLeu]-NH2; N-terminus and C-terminus assumed)
PKB; [5]
  IC50: 5 µM
PKA; [6]
  IC50: > 40 µM

## CC[C@H](NC(=O)[C@H](CO)NC(=O)[C@@H](NC(=O)[C@H](CCCNC(=N)N)NC(=O)[C@@H]1CCCN1C(=O)[C@@H](N)CCCNC(=N)N)[C@@H](C)O)C(=O)NC(COC(=O)NCCNS(=O)(=O)c1cccc2cnccc12)Cc1ccccc1 (stereo partly shown) [PTR 6013] (H-RPRTS[Abu][X2]-{Ethylenediamine-Isoquinoline5sulfonyl})
PKB; Table 2, chimeric compounds, read-out: Activity PKB
  IC50: 3 µM
PKA; Table 2, chimeric compounds, read-out: Activity PKA
  IC50: 1 µM

## 60020-60: Arg-Pro-Arg-Nle-Glu(Gly-5-aminoethylsulfonamide isoquinoline)-Orn-Hol (RPR[Nle]E([Gly-X1])[Orn][hLeu])
PKB; Assay 1
  PKB-kinase (spa) Assay 1, % inhibition of kinase activity: 59%
PKB; Assay 2
  PKB-kinase (spa) Assay 2, % inhibition of kinase activity: 70%
PKA; Assay 1
  PKA-kinase Assay 1, % inhibition of kinase activity: 87%
PKA; Assay 2
  PKA-kinase Assay 2, % inhibition of kinase activity: 89%

## 60020-2: Arg-Pro-Arg-Dap-Glu(5-aminoethylsulfonamide isoquinoline)-Dab-Hol (RPR[Dap]E(X1)[Dab][hLeu])
PKB; Assay 1
  PKB-kinase (spa) Assay 1, % inhibition of kinase activity: 47%
PKB; Assay 2
  PKB-kinase (spa) Assay 2, % inhibition of kinase activity: 48%
PKA; Assay 1
  PKA-kinase Assay 1, % inhibition of kinase activity: 94%
PKA; Assay 2
  PKA-kinase Assay 2, % inhibition of kinase activity: 95%

## CCC[C@H](NC(=O)[C@H](CCCNC(=N)N)NC(=O)[C@@H]1CCCN1C(=O)[C@@H](N)CCCNC(=N)N)C(=O)N[C@@H](CO)C(=O)N[C@@H](C)C(=O)N[C@@H](Cc1ccccc1)C(N)=O [60002-38] (H-RPR[Nva]SAF-NH2; N-terminus and C-terminus assumed)
PKB; [9]
  IC50: 18 µM
PKB; peptide moiety alone
  % Inhibition PKB I: 43%
PKA; [10]
  IC50: 80 µM
PKA; peptide moiety alone
  % Inhibition PKA: −2%

## 60020-34: Arg-Pro-Arg-Dap-Glu(Gly-5-aminoethylsulfonamide isoquinoline)-Dab-Hol (RPR[Dap]E([Gly-X1])[Dab][hLeu])
PKB; Assay 1
  PKB-kinase (spa) Assay 1, % inhibition of kinase activity: 64%
PKB; Assay 2
  PKB-kinase (spa) Assay 2, % inhibition of kinase activity: 65%
PKA; Assay 1
  PKA-kinase Assay 1, % inhibition of kinase activity: 97%
PKA; Assay 2
  PKA-kinase Assay 2, % inhibition of kinase activity: 98%

## CC(C)CC[C@H](NC(=O)[C@H](CCN)NC(=O)[C@H](CCC(=O)NCC(=O)NCCNS(=O)(=O)c1cccc2cnccc12)NC(=O)[C@H](CCCN)NC(=O)[C@H](CCCNC(=N)N)NC(=O)[C@@H]1CCCN1C(=O)[C@@H](N)CCCNC(=N)N)C(N)=O [60020-42, Arg-Pro-Arg-Orn-Glu-(Gly-5-aminoethylsulfonamide)-Dab-Hol] (H-RPR[Orn]E([Gly-Ethylenediamine-Isoquinoline5sulfonyl])[Dab][hLeu]-NH2)
PKB; [1]
  inhibition at 1 µM: 80%
PKB; [2]
  inhibition at 1 µM: 86%
PKB; Table 1, most preferred compounds, read-out: IC50 PKB
  IC50: 0.11 µM
PKA; [7]
  inhibition at 1 µM: 99%
PKA; [8]
  inhibition at 1 µM: 99%
PKA; Table 1, most preferred compounds, read-out: IC50 PKA
  IC50: 0.05 µM

## 60020-1: Arg-Pro-Arg-Dap-Glu(5-aminoethylsulfonamide isoquinoline)-Dab-Phe (RPR[Dap]E(X1)[Dab]F)
PKB; Assay 1
  PKB-kinase (spa) Assay 1, % inhibition of kinase activity: 67%
PKB; Assay 2
  PKB-kinase (spa) Assay 2, % inhibition of kinase activity: 65%
PKA; Assay 1
  PKA-kinase Assay 1, % inhibition of kinase activity: 98%
PKA; Assay 2
  PKA-kinase Assay 2, % inhibition of kinase activity: 99%
